Experimental data taken from patent US10954243B2, “Substituted heterocyclic inhibitors of PTPN11” (NAVIRE PHARMA, INC., priority 2018, dated 2021).
Read-outs that look alike come from different tables or passages of the source.

Key:
[1] = molecular target: PTPN11-E76K mutant enzyme (Homo sapiens (Human), UniProt Q06124, E76K); assay: PTPN11 enzymatic assay (DiFMUP phosphatase activity); assay type: biochemical; conditions: full length PTPN11-E76K mutant, 250 pM enzyme, DiFMUP 50 μM substrate
Protocol: Reaction was initiated by addition of DiFMUP (50 μM) at room temperature in 384-well black plate with a final reaction volume of 20 uL in assay buffer. After 1 hour, DiFMUP fluorescence signal was measured (Ex:340/Em:460) using Envision plate reader. Dose-response curves were analyzed using IC50 regression curve fitting (GeneData Screener). Curves were normalized to a high controls without inhibitor, and low controls without enzyme.

KYSE-520 cells = assay: pERK AlphaScreen; assay type: cell-based; conditions: Homo sapiens
Protocol: KYSE-520 cells (10 k cells/well) were grown in 384-well plate in 20 uL of medium (RPMI-1640, without phenol red, containing 10% FBS) at 37° C. with 5% CO2 overnight. DMSO (control) or increasing concentrations of compounds were diluted in medium, added to the 384-well plate (5 uL/well, final DMSO concentration of 1%), and cells were then incubated with compounds for 2 hr. Phospho-ERK levels were measured using phospho-ERK1/2 AlphaScreen SureFire (PerkinElmer, TGRESB10K) following manufacturer's recommendations. Dose-response curves were analyzed using IC50 regression curve fitting (GeneData Screener). Curves were normalized to a high control without inhibitor (DMSO only), and low control (1 μM selumetinib).

[2] = KYSE-520, 2 h, read-out: pERK Avg IC50 (nM)
[3] = KYSE-520 cells, 2 hr incubation, phospho-ERK1/2 AlphaScreen SureFire, read-out: pERK Avg IC50

PTPN11-E76K mutant enzyme, sequence (Q06124 whole entry E76K): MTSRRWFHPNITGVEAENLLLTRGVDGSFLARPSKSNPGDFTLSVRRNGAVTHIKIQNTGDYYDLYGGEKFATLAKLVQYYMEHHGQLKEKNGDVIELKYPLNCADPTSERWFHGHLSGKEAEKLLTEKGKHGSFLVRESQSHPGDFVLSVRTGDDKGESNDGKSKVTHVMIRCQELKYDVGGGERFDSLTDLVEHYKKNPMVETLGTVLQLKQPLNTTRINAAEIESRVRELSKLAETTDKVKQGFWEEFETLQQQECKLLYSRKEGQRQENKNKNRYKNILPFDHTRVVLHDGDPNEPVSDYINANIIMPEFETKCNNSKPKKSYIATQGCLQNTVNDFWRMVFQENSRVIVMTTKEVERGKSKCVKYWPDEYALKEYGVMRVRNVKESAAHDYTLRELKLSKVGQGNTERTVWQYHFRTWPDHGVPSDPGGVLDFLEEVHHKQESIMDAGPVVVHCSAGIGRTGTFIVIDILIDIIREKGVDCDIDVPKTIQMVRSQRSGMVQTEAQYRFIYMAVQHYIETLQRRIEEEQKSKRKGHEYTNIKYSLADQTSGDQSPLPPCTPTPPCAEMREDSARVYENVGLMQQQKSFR

Row | Compound | IC50 [1] | IC50 (KYSE-520 cells; [2]) | IC50 (KYSE-520 cells; [3])
1 | COc1nc2c(-c3cccc(Cl)c3Cl)n[nH]c2nc1N1CCC(C)(N)CC1 [Example 6, 1-(3-(2,3-dichlorophenyl)-5-methoxy-1H-pyrazolo[3,4-b]pyrazin-6-yl)-4-methylpiperidin-4-amine bis(2,2,2-trifluoroacetate)] | 950 nM | 3820 nM | –
2 | CC1(N)CCN(c2nc3[nH]nc(-c4cccc(Cl)c4Cl)c3nc2CO)CC1 [Example 7, (6-(4-amino-4-methylpiperidin-1-yl)-3-(2,3-dichlorophenyl)-1H-pyrazolo[3,4-b]pyrazin-5-yl)methanol] | 19 nM | – | 97 nM
3 | CC1(N)CCN(c2nc3[nH]nc(-c4cccc(Cl)c4Cl)c3nc2O)CC1 [Example 3, 6-(4-amino-4-methylpiperidin-1-yl)-3-(2,3-dichlorophenyl)-1H-pyrazolo[3,4-b]pyrazin-5-ol] | 960 nM | – | 2000 nM
4 | CC1(N)CCN(c2nc3[nH]nc(-c4cccc(Cl)c4Cl)c3nc2C(=O)NO)CC1 [Example 13, 6-(4-Amino-4-methylpiperidin-1-yl)-3-(2,3-dichlorophenyl)-N-hydroxy-1H-pyrazolo[3,4-b]pyrazine-5-carboxamide] | 224 nM | – | 704 nM
5 | CC1(N)CCN(c2nc3[nH]nc(-c4cccc(Cl)c4Cl)c3nc2Cl)CC1 [Example 10, 1-(5-chloro-3-(2,3-dichlorophenyl)-1H-pyrazolo[3,4-b]pyrazin-6-yl)-4-methylpiperidin-4-amine] | 277 nM | – | 502 nM
6 | CCNc1nccc(-c2n[nH]c3nc(N4CCC5(CC4)CO[C@@H](C)[C@H]5N)c(CO)nc23)c1Cl [Example 17, (6-((3S,4S)-4-amino-3-methyl-2-oxa-8-azaspiro[4.5]decan-8-yl)-3-(3-chloro-2-(ethylamino)pyridin-4-yl)-1H-pyrazolo[3,4-b]pyrazin-5-yl)methanol] | – | – | 9 nM
7 | CC1(N)CCN(c2nc3[nH]nc(-c4cccc(Cl)c4Cl)c3nc2Br)CC1 [Example 2, 1-(5-bromo-3-(2,3-dichlorophenyl)-1H-pyrazolo[3,4-b]pyrazin-6-yl)-4-methylpiperidin-4-amine] | 317 nM | – | 580 nM
8 | C[C@@H]1OCC2(CCN(c3nc4[nH]nc(-c5cccc(Cl)c5Cl)c4nc3CO)CC2)[C@@H]1N [Example 16, (6-((3S,4S)-4-amino-3-methyl-2-oxa-8-azaspiro[4.5]decan-8-yl)-3-(2,3-dichlorophenyl)-1H-pyrazolo[3,4-b]pyrazin-5-yl)methanol] | – | – | 2 nM
9 | CC1(N)CCN(c2nc3[nH]nc(-c4cccc(Cl)c4Cl)c3nc2-c2cc[nH]n2)CC1 [Example 5, 1-(3-(2,3-dichlorophenyl)-5-(1H-pyrazol-3-yl)-1H-pyrazolo[3,4-b]pyrazin-6-yl)-4-methylpiperidin-4-amine] | 397 nM | – | 1970 nM
10 | CC(O)c1nc2c(-c3cccc(Cl)c3Cl)n[nH]c2nc1N1CCC(C)(N)CC1 (stereo not drawn) [Example 12, 1-(6-(4-amino-4-methylpiperidin-1-yl)-3-(2,3-dichlorophenyl)-1H-pyrazolo[3,4-b]pyrazin-5-yl)ethanol] | 372 nM | – | 326 nM
11 | CNc1nccc(-c2n[nH]c3nc(N4CCC(C)(N)CC4)c(CO)nc23)c1Cl [Example 11, (6-(4-amino-4-methylpiperidin-1-yl)-3-(3-chloro-2-(methylamino)pyridin-4-yl)-1H-pyrazolo[3,4-b]pyrazin-5-yl)methanol] | 17 nM | – | –
12 | CCNc1nccc(-c2n[nH]c3nc(N4CCC5(CC4)CO[C@@H](C)[C@H]5N)c(C)nc23)c1Cl [Example 18, (3S,4S)-8-(3-(3-chloro-2-(ethylamino)pyridin-4-yl)-5-methyl-1H-pyrazolo[3,4-b]pyrazin-6-yl)-3-methyl-2-oxa-8-azaspiro[4.5]decan-4-amine 2,2,2-trifluoroacetate] | 9 nM | 20 nM | –
13 | CC1(N)CCN(c2nc3[nH]nc(-c4cccc(Cl)c4Cl)c3nc2C(F)F)CC1 [Example 14, 1-(3-(2,3-dichlorophenyl)-5-(difluoromethyl)-1H-pyrazolo[3,4-b]pyrazin-6-yl)-4-methylpiperidin-4-amine] | 22 nM | – | 36 nM
14 | CC1(N)CCN(c2nc3[nH]nc(-c4cccc(Cl)c4Cl)c3nc2C#N)CC1 [Example 4, 6-(4-amino-4-methylpiperidin-1-yl)-3-(2,3-dichlorophenyl)-1H-pyrazolo[3,4-b]pyrazine-5-carbonitrile] | 465 nM | – | –
15 | CC1(N)CCN(c2nc3[nH]nc(-c4cccc(Cl)c4Cl)c3nc2C=O)CC1 [Example 9, 6-(4-amino-4-methylpiperidin-1-yl)-3-(2,3-dichlorophenyl)-1H-pyrazolo[3,4-b]pyrazine-5-carbaldehyde] | 190 nM | – | 647 nM
16 | C[C@@H]1OCC2(CCN(c3nc4[nH]nc(-c5cccc(OC6COC6)c5Cl)c4nc3CO)CC2)[C@@H]1N [Example 21, (6-((3S,4S)-4-amino-3-methyl-2-oxa-8-azaspiro[4.5]decan-8-yl)-3-(2-chloro-3-(oxetan-3-yloxy)phenyl)-1H-pyrazolo[3,4-b]pyrazin-5-yl)methanol] | 558 nM | – | 2710 nM
17 | CC1(N)CCN(c2nc3[nH]nc(-c4cccc(Cl)c4Cl)c3nc2CF)CC1 [Example 15, 1-(3-(2,3-dichlorophenyl)-5-(fluoromethyl)-1H-pyrazolo[3,4-b]pyrazin-6-yl)-4-methylpiperidin-4-amine] | 1 nM | – | 0.4 nM
18 | Cc1nc2c(-c3cccc(Cl)c3Cl)n[nH]c2nc1N1CCC(C)(N)CC1 [Example 1, 1-(3-(2,3-dichlorophenyl)-5-methyl-1H-pyrazolo[3,4-b]pyrazin-6-yl)-4-methylpiperidin-4-amine] | 68 nM | – | 93 nM
19 | CCNc1nccc(-c2n[nH]c3nc(N4CCC5(CC4)CO[C@@H](C)[C@H]5N)c(Cl)nc23)c1Cl [Example 19, (3S,4S)-8-(5-Chloro-3-(3-chloro-2-(ethylamino)pyridin-4-yl)-1H-pyrazolo[3,4-b]pyrazin-6-yl)-3-methyl-2-oxa-8-azaspiro[4.5]decan-4-amine] | 6 nM | – | 1 nM
20 | CC1(N)CCN(c2nc3[nH]nc(-c4cccc(Cl)c4Cl)c3nc2C(N)=O)CC1 [Example 8, 6-(4-amino-4-methylpiperidin-1-yl)-3-(2,3-dichlorophenyl)-1H-pyrazolo[3,4-b]pyrazine-5-carboxamide] | 90 nM | – | –
21 | CNc1nccc(-c2n[nH]c3nc(N4CCC5(CC4)CO[C@@H](C)[C@H]5N)c(CO)nc23)c1Cl [Example 20, (6-((3S,4S)-4-Amino-3-methyl-2-oxa-8-azaspiro[4.5]decan-8-yl)-3-(3-chloro-2-(methylamino)pyridin-4-yl)-1H-pyrazolo[3,4-b]pyrazin-5-yl)methanol] | 3 nM | – | 2 nM
22 | C[C@@H]1OCC2(CCN(c3nc4[nH]nc(-c5ccnc(OC6COC6)c5Cl)c4nc3CO)CC2)[C@@H]1N [Example 22, (6-((3S,4S)-4-amino-3-methyl-2-oxa-8-azaspiro[4.5]decan-8-yl)-3-(3-chloro-2-(oxetan-3-yloxy)pyridin-4-yl)-1H-pyrazolo[3,4-b]pyrazin-5-yl)methanol] | 48 nM | – | 3370 nM
